Legend:
[1] = biological target: T1, E. coli RecA (Escherichia coli, UniProt P0A7G6); assay: RecA ssDNA-dependent ATPase assay (coupled enzyme, amplex red fluorescence); assay type: biochemical; conditions: read-out: RecA Inhibition IC50
T1 construct: purchased New England BioLabs
Protocol: A coupled enzyme ATPase assay, similar to that described in Wigle and Singleton, BioorgMed Chem Lett. 17(12):3249-53 (2007), was used to screen compounds for in vitro activity against RecA. A solution of the compound to be tested dissolved in DMSO (5 μL of 20× concentrated stock) was added to 90 μL of a master mix containing the following components at their final concentrations in the appropriate wells of flat-bottomed black 96-well plates (Corning Life Sciences, Corning N.Y.) at 37° C.: 0.5 μM E. coli RecA (New England BioLabs), 10 mM Mg(OAc)2 (Sigma, St. Louis, Mo.), 500 μM ATP (Sigma), 250 μM phosphoenolpyruvate (Sigma), 100 μM amplex red (Invitrogen, Carlsbad, Calif.), 1 U/mL pyruvate kinase (Sigma), 1 U/mL pyruvate oxidase (Thermo Fisher Scientific, Waltham, Mass.), 1 U/mL horseradish peroxidase (Sigma), and 20 mM Tris*HOAc, pH 7.5 (Boston BioProducts, Ashland, Mass.). The total volume of the assay solution was 100 μL. […]
The fluorescence emission at 595 nm (excitation at 485 nm) was then recorded using a microplate reader (PolarStar Optima, BMG Labtech, Ortenberg, Germany) for approximately 25 min to establish the baseline fluorescence.
To initiate the reactions, poly(dT) (5 μL of a 100 μM-nts stock solution) was added to each well to give a final DNA concentration of 5 μM-nts. Fluorescence emission was recorded for an additional 90 min. […]

[2] = system: Acinetobacter baumannii (Ab23); assay: MIC shift assay of antibiotics (broth microdilution); assay type: cell-based; conditions: Acinetobacter baumannii (Ab23); compound concentration 10 μM; MIC of colistin alone >8.0 μg/mL
Procedure, shortened: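 Broth microdilution MIC shift assay against Acinetobacter baumannii. Overnight cultures in cation-adjusted Mueller Hinton broth at 37° C. were sub-cultured 1:200, grown to OD600=0.5 to 0.8, diluted to OD600=0.01, and added (50 μL) to wells holding 50 μL of 2× antibiotic stocks for a starting OD600 of 0.005. After 18 to 20 h at 37° C. with shaking, OD600 was read to obtain MICs.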

[3] = system: E. coli; assay: as above; assay type: cell-based; conditions: E. coli (SCR1); compound concentration 10 μM; MIC of colistin alone 0.5-1.0 μg/mL
Protocol: Minimum inhibitory concentration (MIC) shift assays were performed to determine if the test compounds could alter the MIC of existing antibacterial drugs (e.g., ciprofloxacin and colistin) for E. coli, Acinetobacter baumannii, Klebsiella pneumoniae, Pseudomonas aeruginosa, and Enterobacter cloacae. The MIC shift assay is based on the standard broth microdilution MIC determination protocol of Wiegand et al, Nat Protoc. 3(2):163-75 (2008), with slight modifications that allow for the screening of up to seven test compounds in a single plate.
On the day before an assay, bacteria were grown overnight in cation-adjusted Mueller Hinton broth (CAMHB; Teknova, Hollister, Calif.) at 37° C. in an orbital shaker and sub-cultured at a 1:200 dilution the following morning. The cells were grown to OD600=0.5 to 0.8 and then diluted to OD600=0.01. From a serial dilution of each antibiotic at (50 μL of 2× concentrated stock solutions) several concentrations were added to the wells of a sterile, transparent round-bottom 96-well plate (Phenix Research Products, Candler, N.C.), and diluted cells (50 μL) were added to the plates for a starting OD600 of 0.005. Then, a test compound (2.5 μL) was added to each well to give a final concentration of 4 or 10 μM. A row of wells lacking test compound but containing the antibiotic was used to determine the MIC of that antibiotic alone. A column of wells lacking both antibiotic and test compound served as a growth control, and an additional column containing only CAMHB was included as a sterile blank control.
The plates were incubated for 18 to 20 h at 37° C. in an orbital shaker, and the cell density (OD600) was determined the following day in a microplate reader (PolarStar Optima, BMG Labtech). The MIC shift was determined by comparing the MIC of the antibiotic alone to the MIC of the antibiotic plus test compound.

[4] = system: SOS response (sulAp-lacZ reporter) in E. coli strain DM4000; assay: Ciprofloxacin-induced SOS reporter gene expression assay (sulAp-lacZ, Beta-Glo luminescence, with or without PMBN); assay type: cell-based; conditions: Escherichia coli; in the presence of PMBN (4 μg/mL); read-out: SOS Attenuation EC50
Description: An SOS reporter gene assay was used to assess the ability of the RecA inhibitor compounds to block the SOS response to ciprofloxacin. Details of the testing methodology are provided in, for example, Sandler et al., Genetics 143(1):5-13 (1996) and McCool et al., Mol Microbiol. 53(5):1343-57 (2004). The SOS genes are regulated by the transcriptional repressor LexA and the DNA-binding protein RecA. When DNA damage occurs, RecA binds to ssDNA, and this protein-DNA complex then induces the autocleavage of LexA, resulting in the depression of LexA-bound promoters. […] Therefore, a reporter construct wherein the sulA promoter (sulAp) is fused to the lacZ gene can be used to measure the level of the SOS response in cells using an assay for β-galactosidase activity.
E. coli strain DM4000 contains the sulAp-lacZ reporter gene inserted at the X attachment site. Two additional strains containing the same sulAp-lacZ reporter gene were used as RecA-independent controls in this assay. JC19098 encodes an un-cleaveable LexA repressor; therefore, the sulA promoter-dependent β-galactosidase expression is always off. […]
Luminescence was measured on a plate reader with the gain adjustment set to 40% of the maximum on a well with one of the highest luminescence values on the plate (e.g., a well containing ciprofloxacin without inhibitor). […]

T1 sequence (P0A7G6 2-353): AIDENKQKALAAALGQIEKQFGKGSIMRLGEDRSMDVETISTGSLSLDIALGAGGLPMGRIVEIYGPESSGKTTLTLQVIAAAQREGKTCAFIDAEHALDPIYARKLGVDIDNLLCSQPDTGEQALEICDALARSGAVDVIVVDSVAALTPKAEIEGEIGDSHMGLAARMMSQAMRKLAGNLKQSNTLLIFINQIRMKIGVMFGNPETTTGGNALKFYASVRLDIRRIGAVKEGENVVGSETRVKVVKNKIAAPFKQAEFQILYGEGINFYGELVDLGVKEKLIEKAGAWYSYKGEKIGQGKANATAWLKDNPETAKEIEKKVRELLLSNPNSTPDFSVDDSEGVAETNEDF

Row | Structure (SMILES) | IC50 [1] | Colistin MIC Shift [2] | Colistin MIC Shift [3] | EC50 [4]
1 | CN(C)CCCNc1nc(/C=C/c2ccc(Cl)c(Cl)c2)nc2c(C(F)(F)F)cccc12 [MLJ-02-070A] | 12 µM | >128X | 16-32X | < 6 µM
2 | Clc1ccc(/C=C/c2c[nH]c3ccc(Br)cc23)cc1Cl [MLJ-02-086B] | 15 µM | >64X | 8-16X | 8 µM

Reference: US20160168140A1, “HETEROCYCLIC COMPOUNDS AS ANTIBIOTIC POTENTIATORS” (priority 2014, published 2016)
